Values quoted from earlier work as cited in patent US8632826B2, “Cosmetic wrinkle treatment method based on a zanthoxylum bungeanum extract” (Indena S.p.A., priority 2009, dated 2014).

Test system: thrombosis

COc1ccc2c(c[n+](C)c3c4cc5c(cc4ccc23)OCO5)c1OC [chelcrythrine]
activity in the prevention of thrombosis: active in the prevention of thrombosis
